According to patent publication US8487006B2, “Method of enhancing TGF-β signalling” (Auxagen, Inc., priority 2008, dated 2013):

Experiments:
[1] = system: TGF-β1-stimulated Smad2 phosphorylation in Mv1Lu cells; assay: TGF-β1-stimulated Smad2 phosphorylation, quantitative Western blot (P-Smad2/Smad2); format: cell-based; conditions: several concentrations of the inhibitors, 100 pM TGF-β1 for 30 min
Protocol: (A-I, K) Cells were pretreated with 10 mg/ml β-CD (A, K), 20 LM MDC (B), 40 μM monensin (C), 20 μM TFP (D) and 0.45 M sucrose (K) or several concentrations (as indicated) of β-CD (E), TFP (F), monensin (G), chloroquine (H), dynasore (I), at 37° C. for 1 h. The cells were then stimulated with vehicle only or […] TGF-β1 (A to I) or several concentrations (as indicated) of TGF-β1 (K). After several time periods, as indicated, at 37° C., cell lysates were analysed by 7.5% SDS PAGE followed by Western blot analysis using antibodies to P-Smad2 and Smad2 and chemiluminescence development (a or top) and quantitation by densitometry (b or bottom). The relative level of P-Smad2 was expressed as arbitrary units (A.U.) (A, B, C, D, K) (b). The relative level of P-Smad2 in cells treated with TGF-β alone was taken as 100% of control (E to I, bottom). The data shown is representative of 3 independent experiments. (J) Cells were pretreated with 10 mg/ml β-CD (c,d) at 37° C. for 1 h. The cells were then stimulated with vehicle only (a) or with 100 pM TGF-β (b,d). After 30 min at 37° C. the cells were fixed and subjected to indirect immunofluorescent staining using antibody to P-Smad2. The magnification is 200×. The data shown is representative of 3 independent experiments.
If TGF-β-induced signaling occurs in endosomes, as reported previously^6-15, inhibitors of clathrin-dependent endocytosis would be expected to attenuate TGF-β-stimulated signaling such as Smad2 phosphorylation and nuclear colocalization^4,5. To test this, Mv1Lu cells were pretreated with vehicle only or with clathrin-dependent endocytosis inhibitors at 37° C. for 30 min and then treated with or without 100 pM TGF-β1. After several time periods, the relative levels of P-Smad2 in treated and stimulated cells were analyzed by quantitative Western blot analysis using antibodies to P-Smad2 and Smad2. […] After stimulation of cells with TGF-β1 for 60 min, β-CD, TFP, MDC and monensin enhanced TGF-β1-stimulated Smad2 phosphorylation by ˜1.5-2.5 fold (FIGS. 1Ab, 1Bb, 1Cb, and 1Db). To further characterize the effects of these inhibitors on Smad2 phosphorylation, Mv1Lu cells were pretreated with vehicle only or with several concentrations of the inhibitors at 37° C. for 30 min and then stimulated with 100 pM of TGF-β1. After 30 min at 37° C., cell lysates were subjected to Western blot analysis using antibodies to P-Smad2 and Smad2 followed by quantitation with densitometry. […] To determine the effect of β-CD on TGF-β1-stimulated nuclear localization of P-Smad2, Mv1Lu cells were pretreated with vehicle only or with β-CD (10 mg/ml). After 1 h at 37° C., cells were stimulated with TGF-β1 ([…]) for 30 min. The nuclear localization of P-Smad2 was then analyzed by indirect fluorescent staining.
To define the coated-pit stages that are important in TGF-β1-induced signaling, we treated Mv1Lu cells with hyperosmotic sucrose (0.45 M) or β-CD and examined TGF-β1-stimulated Smad2 phosphorylation in these cells. […] In cells stimulated with 100 pM TGF-β1, hyperosmotic sucrose attenuated Smad2 phosphorylation by ˜60% (FIG. 1Kb). On the other hand, β-CD enhanced TGF-β1-stimulated Smad2 phosphorylation at all concentrations of TGF-β1. It enhanced TGF-β1-stimulated Smad2 phosphorylation by 2-4 fold when compared with the control (treatment without β-CD) (FIGS. 1Ka and 1Kb).

wild-type mice = assay: Wild-type mice treated with dynasore (organ pathology, coronary artery histology, TβR-II staining, plasma cholesterol); format: in vivo
Protocol: Wild-type and ApoE-null mice were treated with vehicle only (a, c) or 1 mg/kg dynasore (b, d) every two days for 8 weeks. The coronary arteries were removed from the animals and subjected to histological analysis by H & E staining (A) and indirect immunofluorescent staining for TβR-II(B). The asterisk (*) indicates the location of the lumen in coronary arteries. The arrow indicates the immunofluorescent staining of TβR-II in the aortic endothelium.
We hypothesize that TGF-β enhancers such as inhibitors of clathrin-dependent endocytosis may ameliorate atherosclerosis caused by cholesterol-induced suppression of TGF-β responsiveness in vascular cells^3,12. To test our hypothesis, we treated hypercholesterolemic ApoE-null mice with dynasore (1 mg/kg body weight) via intraperitoneal administration every two days for 8 weeks. We chose dynasore for two reasons. […] At 50 μM, it enhances TGF-β-stimulated expression of PAI-1 in these cell types by ˜4-5 fold, 2) Dynasore is the only inhibitor tested which alone is capable of stimulating PAI-1 expression. […] The plasma levels of cholesterol in wild-type mice treated with either vehicle only or dynasore were 120±10 and 125±20 mg/dl, respectively.
However, no TβR-II staining was found in the aortic endothelium and smooth muscle of coronary arteries in ApoE-null mice treated with vehicle only (FIG. 4Bc).

In the case of `O=C(N/N=C/c1ccc(O)c(O)c1)c1cc2ccccc2cc1O` [dynasore], the “concentration dependence of the effect on TGF-β1-stimulated Smad2 phosphorylation” value [1] is reported as “enhanced TGF-β1-stimulated Smad2 phosphorylation in a concentration-dependent manner”, the “morphology of the coronary arteries” value (wild-type mice; dynasore 1 mg/kg every two days for 8 weeks, H & E staining) is reported as “normal morphology” and the “macroscopic or microscopic abnormality in the liver, heart, lung and kidney” value (wild-type mice; dynasore 1 mg/kg intraperitoneal every 2 days for 8 weeks) is reported as “no apparent macroscopic or microscopic abnormality has been detected”.
